Data published in ChEMBL document CHEMBL1201862, “PubChem BioAssay data set” (2004).
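Cultured in 96-well plates, cells were exposed to test compound for 48 hours across five concentrations. GI50 = concentration required for 50% inhibition of growth.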 The source made the active and inactive calls. Rule as the data show it: active = GI50 up to about 1.1 µM and inactive = higher.

Assays:
Test in all cases: NCI tumour cell line growth inhibition, 48 h
[1] = test system: A498
[2] = test system: CCRF-CEM
[3] = test system: DLD-1
[4] = test system: HCC 2998
[5] = test system: HCT-116
[6] = test system: IGROV-1
[7] = test system: MDA-MB-231
[8] = test system: MOLT-4
[9] = test system: Malme-3M
[10] = test system: NCI-H23
[11] = test system: NCI-H460
[12] = test system: OVCAR-4
[13] = test system: OVCAR-5
[14] = test system: SF-268
[15] = test system: SK-MEL-28
[16] = test system: SK-OV-3
[17] = test system: SNB-19
[18] = test system: SW-620
[19] = test system: U-251
[20] = test system: MDA-N

Compound: CC(O)CCC(=O)c1ccoc1 (centres undefined)
- GI50 [1]: 3820 µM (inactive)
- GI50 [2]: 5650 µM (inactive)
- GI50 [3]: 7960 µM (inactive)
- GI50 [4]: 8610 µM (inactive)
- GI50 [5]: 5740 µM (inactive)
- GI50 [6]: 7290 µM (inactive)
- GI50 [7]: > 7830 µM (inactive)
- GI50 [8]: 4080 µM (inactive)
- GI50 [9]: 6820 µM (inactive)
- GI50 [10]: 8110 µM (inactive)
- GI50 [11]: 7230 µM (inactive)
- GI50 [12]: 5110 µM (inactive)
- GI50 [13]: 7820 µM (inactive)
- GI50 [14]: 7000 µM (inactive)
- GI50 [15]: 6930 µM (inactive)
- GI50 [16]: 6970 µM (inactive)
- GI50 [17]: 7000 µM (inactive)
- GI50 [18]: > 9750 µM (inactive)
- GI50 [19]: 6780 µM (inactive)

Compound: Cn1cnc([N+](=O)[O-])c1Sc1nc(N)nc2c1ncn2C1OC(CO)C(O)C1O (centres undefined)
- GI50 [2]: 3.15 µM (inactive)
- GI50 [3]: 7.67 µM (inactive)
- GI50 [4]: 2.77 µM (inactive)
- GI50 [5]: 3.85 µM (inactive)
- GI50 [6]: 12.7 µM (inactive)
- GI50 [7]: 0.783 µM (active)
- GI50 [20]: 2.73 µM (inactive)
- GI50 [8]: 5 µM (inactive)
- GI50 [9]: 17.8 µM (inactive)
- GI50 [10]: 4.16 µM (inactive)
- GI50 [11]: 1.69 µM (inactive)
- GI50 [12]: 16.4 µM (inactive)
- GI50 [13]: 1.88 µM (inactive)
- GI50 [14]: 4.44 µM (inactive)
- GI50 [15]: 28 µM (inactive)
- GI50 [16]: 3.48 µM (inactive)
- GI50 [17]: 44.6 µM (inactive)
- GI50 [18]: 28.1 µM (inactive)
- GI50 [19]: 21.7 µM (inactive)

Compound: CC(C)(Br)C(Br)CC/C(=C/CBr)CBr.CC(C)(Br)C(Br)CC/C(=C\CBr)CBr (centres undefined)
- GI50 [1]: 20.9 µM (inactive)
- GI50 [2]: 0.91 µM (active)
- GI50 [3]: 3.39 µM (inactive)
- GI50 [4]: 13.5 µM (inactive)
- GI50 [5]: 2.13 µM (inactive)
- GI50 [6]: 3.08 µM (inactive)
- GI50 [7]: 12 µM (inactive)
- GI50 [20]: 2.16 µM (inactive)
- GI50 [8]: 2.1 µM (inactive)
- GI50 [9]: 3.85 µM (inactive)
- GI50 [10]: 3.41 µM (inactive)
- GI50 [11]: 3.21 µM (inactive)
- GI50 [12]: 5.2 µM (inactive)
- GI50 [13]: 18.6 µM (inactive)
- GI50 [14]: 2.21 µM (inactive)
- GI50 [15]: 2.27 µM (inactive)
- GI50 [16]: 21.4 µM (inactive)
- GI50 [17]: 14.4 µM (inactive)
- GI50 [18]: 2.71 µM (inactive)
- GI50 [19]: 3.05 µM (inactive)

Compound: CN(C)C(=S)/N=c1\ssc(=S)n1Cc1cccnc1
- GI50 [1]: 10.1 µM (inactive)
- GI50 [2]: 8.53 µM (inactive)
- GI50 [3]: 3.95 µM (inactive)
- GI50 [4]: 2.54 µM (inactive)
- GI50 [5]: 3.2 µM (inactive)
- GI50 [6]: 7.18 µM (inactive)
- GI50 [7]: 6.07 µM (inactive)
- GI50 [20]: 0.324 µM (active)
- GI50 [8]: 6.46 µM (inactive)
- GI50 [9]: 2.16 µM (inactive)
- GI50 [10]: 2.64 µM (inactive)
- GI50 [11]: 2.81 µM (inactive)
- GI50 [12]: 19.3 µM (inactive)
- GI50 [13]: 35.9 µM (inactive)
- GI50 [14]: 15.2 µM (inactive)
- GI50 [15]: 9.4 µM (inactive)
- GI50 [16]: 4.36 µM (inactive)
- GI50 [17]: 5.15 µM (inactive)
- GI50 [18]: 1.26 µM (inactive)
- GI50 [19]: 3.38 µM (inactive)

Compound: Cc1c(C(=O)CSc2nc3ccccc3c(=O)n2-c2ccccc2)c(=O)n(-c2ccccc2)n1C
- GI50 [1]: 42.4 µM (inactive)
- GI50 [2]: > 100 µM (inactive)
- GI50 [3]: > 100 µM (inactive)
- GI50 [4]: > 100 µM (inactive)
- GI50 [5]: 68.2 µM (inactive)
- GI50 [6]: > 100 µM (inactive)
- GI50 [8]: > 100 µM (inactive)
- GI50 [9]: 60.5 µM (inactive)
- GI50 [10]: 62.4 µM (inactive)
- GI50 [11]: 37.8 µM (inactive)
- GI50 [12]: > 100 µM (inactive)
- GI50 [13]: > 100 µM (inactive)
- GI50 [14]: > 100 µM (inactive)
- GI50 [15]: 99.3 µM (inactive)
- GI50 [16]: 19.3 µM (inactive)
- GI50 [17]: 44.4 µM (inactive)
- GI50 [18]: > 100 µM (inactive)
- GI50 [19]: 22.4 µM (inactive)

Compound: Cc1nsc2cc(Cl)n(C)c(=O)c12
- GI50 [1]: > 100 µM (inactive)
- GI50 [2]: > 100 µM (inactive)
- GI50 [3]: > 100 µM (inactive)
- GI50 [4]: 0.991 µM (active)
- GI50 [5]: > 100 µM (inactive)
- GI50 [6]: > 100 µM (inactive)
- GI50 [8]: > 100 µM (inactive)
- GI50 [9]: > 100 µM (inactive)
- GI50 [10]: > 100 µM (inactive)
- GI50 [11]: > 100 µM (inactive)
- GI50 [12]: > 100 µM (inactive)
- GI50 [13]: > 100 µM (inactive)
- GI50 [14]: > 100 µM (inactive)
- GI50 [15]: > 100 µM (inactive)
- GI50 [16]: > 100 µM (inactive)
- GI50 [17]: > 100 µM (inactive)
- GI50 [18]: > 100 µM (inactive)
- GI50 [19]: > 100 µM (inactive)
